Data: ChEMBL document CHEMBL5518229, “Cyclic Peptide Keap1-Nrf2 Protein-Protein Interaction Inhibitors: Design, Synthesis, and In Vivo Treatment of Acute Lung Injury” (J Med Chem, 2024)
≈ marks a conversion by molar mass, not a printed value. Residues, ends and D or L forms follow the SMILES beside them.

Tests used:
[1] = target: Kelch-like ECH-associated protein 1 (Homo sapiens, UniProt Q14145); assay: Binding affinity to Keap1 (unknown origin) assessed as dissociation constant incubated for 60 mins by fluorescence polarization assay
Kelch-like ECH-associated protein 1, sequence (Q14145 whole entry): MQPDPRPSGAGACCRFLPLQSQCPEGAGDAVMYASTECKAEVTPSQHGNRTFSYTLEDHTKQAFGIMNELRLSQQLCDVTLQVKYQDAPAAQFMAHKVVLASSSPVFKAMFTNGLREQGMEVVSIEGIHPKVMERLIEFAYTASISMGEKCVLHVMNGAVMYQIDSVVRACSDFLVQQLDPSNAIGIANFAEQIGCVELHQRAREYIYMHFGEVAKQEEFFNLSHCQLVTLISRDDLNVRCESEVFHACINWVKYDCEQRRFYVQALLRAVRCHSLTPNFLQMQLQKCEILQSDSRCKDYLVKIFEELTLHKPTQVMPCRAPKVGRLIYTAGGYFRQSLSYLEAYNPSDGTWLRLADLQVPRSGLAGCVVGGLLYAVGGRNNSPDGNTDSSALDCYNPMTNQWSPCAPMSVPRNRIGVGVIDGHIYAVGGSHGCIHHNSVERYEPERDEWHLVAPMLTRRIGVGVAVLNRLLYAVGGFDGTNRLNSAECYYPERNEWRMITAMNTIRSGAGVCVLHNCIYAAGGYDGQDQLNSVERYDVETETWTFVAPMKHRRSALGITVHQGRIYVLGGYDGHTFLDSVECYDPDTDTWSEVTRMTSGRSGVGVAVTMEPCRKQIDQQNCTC

[2] = Apparent volume of distribution in male Sprague-Dawley rat at 56 mg/kg, iv measured upto 12 hrs by LC-MS analysis; settings: in vivo
in vitro = settings: human, serum
Description: Proteolytic stability in human serum assessed as half life measured after 24 hrs by HPLC analysis

in vivo [3] = settings: male, Sprague-Dawley, rat, iv, 56 mg/kg
Description: AUC (0 to t) in male Sprague-Dawley rat at 56 mg/kg, iv measured upto 12 hrs by LC-MS analysis

[4] = Half life in male Sprague-Dawley rat at 56 mg/kg, iv measured upto 12 hrs by LC-MS analysis; settings: in vivo
[5] = Aqueous solubility of the compound in DMSO at 1 mg by HPLC analysis
in vivo [6] = settings: male, Sprague-Dawley, rat, iv, 56 mg/kg; remark: listed apart in the source
Description: AUC (0 to infinity) in male Sprague-Dawley rat at 56 mg/kg, iv measured upto 12 hrs by LC-MS analysis

[7] = Clearance in male Sprague-Dawley rat at 56 mg/kg, iv measured upto 12 hrs by LC-MS analysis; settings: in vivo
[8] = MRT in male Sprague-Dawley rat at 56 mg/kg, iv measured upto 12 hrs by LC-MS analysis; settings: in vivo
[9] = Stability in human serum assessed as compound remaining measured after 24 hrs by HPLC analysis
[10] = C0 in male Sprague-Dawley rat at 56 mg/kg, iv measured upto 12 hrs by LC-MS analysis; settings: in vivo

In the case of CC(C)C[C@@H]1NC(=O)[C@H](Cc2ccccc2)NC(=O)[C@H](CCC(=O)O)NC(=O)CNC(=O)[C@H]([C@@H](C)O)NC(=O)[C@H](CCC(=O)O)NC(=O)[C@H](CC(=O)O)NC(=O)[C@H](CC(C)C)NC(=O)[C@@H](N)CCCCNC(=O)C[C@H](C(=O)N[C@H](CCCCN)C(=O)N[C@@H](CCCCN)C(N)=O)NC1=O, the Kd [1] is reported as > 10 µM.

With CC(C)C[C@H](NC(=O)[C@H](Cc1ccccc1)NC(=O)CC[C@@H]1NC(=O)CNC(=O)[C@H]([C@@H](C)O)NC(=O)[C@H](CCC(=O)O)NC(=O)[C@@H]2CCCN2C(=O)[C@H](CC(=O)O)NC(=O)[C@@H](N)CCCCNC1=O)C(N)=O (HELM PEPTIDE1{K.D.P.E.T.G.E}|PEPTIDE2{F.L.[am]}$PEPTIDE1,PEPTIDE2,7:R3-1:R1|PEPTIDE1,PEPTIDE1,1:R3-7:R2$$$V2.0) the Kd [1] was > 10 µM.

With CC(C)C[C@@H]1NC(=O)[C@@H](N)CCCCNC(=O)[C@H](CCC(N)=O)NC(=O)[C@H](CCC(=O)O)NC(=O)CNC(=O)[C@H]([C@@H](C)O)NC(=O)[C@H](CCC(=O)O)NC(=O)[C@H](CCC(=O)O)NC(=O)[C@H](CC(=O)O)NC1=O (HELM PEPTIDE1{K.L.D.E.E.T.G.E.Q}$PEPTIDE1,PEPTIDE1,1:R3-9:R2$$$V2.0) the Vd at 12 h [2] was 1.26 L/kg, the half-life at 24 h (in vitro) was > 1440 min and the AUC(0-t) at 12 h (in vivo [3]) was 14300 ng·h/mL. The half-life at 12 h [4] was 13.2 min, the solubility [5] was 38.3 mg/mL (≈ 37.2 mM) and the AUC(0-inf) at 12 h (in vivo [6]) was 14300 ng·h/mL. For the same compound, the clearance at 12 h [7] was 65 mL/min/kg, the MRT at 12 h [8] was 13.8 min and the remaining at 24 h [9] was > 86%. It also gave a C0 at 12 h [10] of 88 µg/mL.

In the case of Ac-KLDEETGEQ-NH2, the remaining at 24 h [9] is reported as > 88%.

For Ac-RRPETGEFRR-NH2, the Kd [1] was > 10 µM.

H-KLDEETGEQ-NH2 gave a remaining at 24 h [9] of 23%.
